Data from patent US20220324835A1 (Nurix Therapeutics, Inc., priority 2018, published 2022).

Tests used:
[1] = biological target: T1, Cbl-b (Homo sapiens, UniProt Q13191); assay: Cbl-b inhibition assay (Cbl-b activity assay, FRET, Biological Example 1; 100 mM NaCl, 60 nM Src kinase); type: biochemical; conditions: upper bound stated in text lists; read-out: IC50 values in the Cbl-b inhibition assay of Biological Example 1
Text: FIG. 1A and FIG. 1B show a series of diagrams depicting the activity assay utilized to assay inhibition of Cbl-b activity by a Cbl-b inhibitor. FIG. 1A: The activity assay mixture comprises an N-terminal biotinylated Avi-tagged Cbl-b, an E2 enzyme (i.e., UbcH5B) irreversibly conjugated to Bodipy-Fluorescein tagged ubiquitin (i.e., UbcH5B-Ub), a Src kinase, streptavidin-terbium, and assay buffer. Phosphorylation of Cbl-b by the Src kinase allows UbcH5B-Ub to bind to Cbl-b and bring the Bodipy-Fluorescein tagged ubiquitin in proximity to the streptavidin-terbium bound to the N-terminal biotinylated Avi-tagged Cbl-b. […] FIG. 1B: In the presence of a Cbl-b inhibitor, such as one described herein, Cbl-b is unable to bind UbcH5B-Ub. The lack of a FRET signal indicates Cbl-b is inhibited by the Cbl-b inhibitor. Ub indicates ubiquitin; N-Avi indicates biotinylated Avi-tag at the N-terminus of Cbl-b; inhibitor indicates Cbl-b inhibitor.
The lack of a FRET signal indicates Cbl-b is inhibited by the Cbl-b inhibitor. In FIG. 1A and FIG. 1B, Ub indicates ubiquitin; N-Avi indicates biotinylated Avi-tag at the N-terminus of Cbl-b; and inhibitor indicates Cbl-b inhibitor.

[2] = biological target: T1, Cbl-b; assay: Cbl-b activity assay (Cbl-b inhibition assay), TR-FRET of Cbl-b interaction with UbcH5B-Ub; type: biochemical; conditions: assay buffer with 100 mM NaCl, 60 nM Src kinase; read-out: Cbl-b activity IC50
Method: The ability of candidate compounds to inhibit Cbl-b activity was measured by monitoring the interaction of Cbl-b with UbcH5B-Ub in the presence of the candidate compound.
Fluorescently labeled UbcH5B-Ub was prepared by conjugating ubiquitin (Ub), labeled at its N-terminus with Bodipy-Fluorescein, to UbcH5B, an E2 enzyme, harboring a cysteine to lysine mutation at position 85. […] After incubation in the presence of the candidate compound, the plate was incubated for an additional 1.5 hours in the presence of 60 nM Src kinase with 1 mM ATP and 5 mM MgCl2 (final concentrations). […] The plate was incubated for 1 hour.
Column marked with an asterisk (*) were tested as described above with assay buffer containing 50 mM NaCl instead of 100 mM NaCl and 30 nM Src kinase instead of 60 nM Src kinase. The resulting data for the Cbl-b binding assay was solvent corrected and double referenced prior to analysis. All data were globally fit to a steady-state affinity and kinetic binding model where applicable). Fit parameters were derived from a 1:1 binding model using the Biacore T200 Evaluation Software V2.0 (GE Healthcare) (Table 2).

T1 sequence (Q13191 36-427): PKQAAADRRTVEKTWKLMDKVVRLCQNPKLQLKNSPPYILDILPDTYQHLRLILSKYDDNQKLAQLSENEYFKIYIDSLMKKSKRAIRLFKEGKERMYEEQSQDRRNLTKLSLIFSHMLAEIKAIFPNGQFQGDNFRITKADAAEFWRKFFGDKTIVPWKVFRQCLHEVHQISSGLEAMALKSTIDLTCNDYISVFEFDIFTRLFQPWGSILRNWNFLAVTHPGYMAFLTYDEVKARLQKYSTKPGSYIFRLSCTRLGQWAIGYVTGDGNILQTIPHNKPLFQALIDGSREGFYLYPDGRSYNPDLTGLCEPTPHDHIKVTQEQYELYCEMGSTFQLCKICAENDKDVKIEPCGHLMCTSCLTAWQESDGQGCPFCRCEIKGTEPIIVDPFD

Row | SMILES | IC50 [1] [µM] | IC50 [2] [µM]
1 | Cn1cnnc1CC1(c2cccc(N3Cc4c(cc(CN5CC[C@@H](F)[C@@H](F)C5)cc4C(F)(F)F)C3=O)c2)COC1 (relative stereo) [Example 634, 6-((cis-3,4-difluoropiperidin-1-yl)methyl)-2-(3-(3-((4-methyl-4H-1,2,4-triazol-3-yl)methyl)oxetan-3-yl)phenyl)-4-(trifluoromethyl)isoindolin-1-one] | ≤ 0.1 | < 0.1
2 | Cn1cnnc1CC1(c2cccc(N3Cc4c(cc(CN5CC[C@@H]6OCC[C@@H]6C5)cc4C(F)(F)F)C3=O)c2)COC1 (relative stereo) [Example 708, rel-6-[(3aR,7aS)-hexahydro-2H-furo[3,2-c]pyridin-5-ylmethyl]-2-(3-{3-[(4-methyl-1,2,4-triazol-3-yl)methyl]oxetan-3-yl}phenyl)-4-(trifluoromethyl)-3H-isoindol-1-one] | ≤ 0.1 | < 0.1
3 | Cn1cnnc1CC1(c2cccc(N3Cc4c(cc(CN5CC[C@@H]6NCCO[C@@H]6C5)cc4C(F)(F)F)C3=O)c2)COC1 (relative stereo) [Example 713, rel-6-[(4aR,8aS)-octahydropyrido[3,4-b][1,4]oxazin-6-ylmethyl]-2-(3-{3-[(4-methyl-1,2,4-triazol-3-yl)methyl]oxetan-3-yl}phenyl)-4-(trifluoromethyl)-3H-isoindol-1-one] | ≤ 0.1 | < 0.1
4 | CN1CC[C@@H](O)[C@H](Cc2cc3c(c(C(F)(F)F)c2)CN(c2cccc(C4(Cc5nncn5C)COC4)c2)C3=O)C1 (single isomer, unassigned) [Compound 533] | ≤ 0.1 | < 0.1
5 | CC(c1cc(C(=O)Nc2cccc(C3(Cc4nncn4C)COC3)c2)nc(C2CC2)n1)N1CCC2(CC2)C1 (stereo in doubt) [Example 592b, (S)-6-(1-(5-azaspiro[2.4]heptan-5-yl)ethyl)-2-cyclopropyl-N-(3-(3-((4-methyl-4H-1,2,4-triazol-3-yl)methyl)oxetan-3-yl)phenyl)pyrimidine-4-carboxamide] | ≤ 0.1 | < 0.1
6 | C[C@H](Sc1nncn1C)c1cccc(NC(=O)c2cccc(N(C)C)c2)c1 [Compound 26, (S)-3-(Dimethylamino)-N-(3-(1-((4-methyl-4H-1,2,4-triazol-3-yl)thio)ethyl)phenyl)benzamide] | ≤ 10 | > 10
7 | C[C@H](Sc1nncn1C)c1cccc(NC(=O)c2cccc(N)c2)c1 [Compound 58, (S)-3-amino-N-(3-(1-((4-methyl-4H-1,2,4-triazol-3-yl)thio)ethyl)phenyl)benzamide] | ≤ 10 | 3 to 10
8 | C[C@H](Sc1nncn1C)c1cccc(NC(=O)c2cc3ccccc3c(C(F)(F)F)n2)c1 [Compound 63, (S)-N-(3-(1-((4-methyl-4H-1,2,4-triazol-3-yl)thio)ethyl)phenyl)-1-(trifluoromethyl)isoquinoline-3-carboxamide] | ≤ 10 | 3 to 10
9 | CC(Sc1nncn1C)c1ccc(OC(F)(F)F)c(NC(=O)c2cccc(C(F)(F)F)n2)c1 (centres unmarked) [Compound 94, N-(5-(1-((4-methyl-4H-1,2,4-triazol-3-yl)thio)ethyl)-2-(trifluoromethoxy)phenyl)-6-(trifluoromethyl)picolinamide] | ≤ 10 | 1 to 3
10 | C[C@H](Sc1nncn1C)c1ccnc(NC(=O)c2ccc(Cl)c(C(F)(F)F)n2)c1 [Compound 106, (S)-5-chloro-N-(4-(1-((4-methyl-4H-1,2,4-triazol-3-yl)thio)ethyl)pyridin-2-yl)-6-(trifluoromethyl)picolinamide] | ≤ 10 | 1 to 3
11 | C[C@H](Sc1nncn1C)c1ccnc(NC(=O)c2noc3ccccc23)c1 [Compound 115, (S)-N-(4-(1-((4-methyl-4H-1,2,4-triazol-3-yl)thio)ethyl)pyridin-2-yl)benzo[d]isoxazole-3-carboxamide] | ≤ 10 | 3 to 10
12 | C[C@H](Sc1nncn1C)c1ccnc(NC(=O)c2csc(C(F)(F)F)n2)c1 [Compound 118, N-[4-[(1S)-1-[(4-methyl-1,2,4-triazol-3-yl)sulfanyl]ethyl]-2-pyridyl]-2-(trifluoromethyl)thiazole-4-carboxamide] | ≤ 10 | 1 to 3
13 | C[C@H](Sc1nncn1C)c1ccnc(NC(=O)c2cc(Br)cc(C(F)(F)F)n2)c1 [Compound 119, 4-bromo-N-[4-[(1S)-1-[(4-methyl-1,2,4-triazol-3-yl)sulfanyl]ethyl]-2-pyridyl]-6-(trifluoromethyl)pyridine-2-carboxamide] | ≤ 1 | 0.301 to 1
14 | CC(Sc1nncn1C)c1cncc(NC(=O)c2cccc(C(F)(F)F)n2)c1 (centres unmarked) [Compound 127, N-[5-[1-[(4-methyl-1,2,4-triazol-3-yl)sulfanyl]ethyl]-3-pyridyl]-6-(trifluoromethyl)pyridine-2-carboxamide] | ≤ 10 | 3 to 10
15 | Cc1c[nH]nc1S[C@@H](C)c1ccnc(NC(=O)c2ccc3ccccc3n2)c1 [Compound 128a, (S)-N-(4-(1-((4-methyl-1H-pyrazol-3-yl)thio)ethyl)pyridin-2-yl)quinoline-2-carboxamide] | ≤ 10 | 1 to 3
16 | Cc1cn(C)c(SC(C)c2ccnc(NC(=O)c3ccc4ccccc4n3)c2)n1 (centres unmarked) [Compound 129, N-(4-(1-((1,4-dimethyl-1H-imidazol-2-yl)thio)ethyl)pyridin-2-yl)quinoline-2-carboxamide] | ≤ 10 | > 10
17 | CC(Sc1nncn1C)c1cc(NC(=O)c2ccc3ccccc3n2)c2c(c1)C(C)(O)CC2 (centres unmarked) [Compound 131, N-(1-hydroxy-1-methyl-6-(1-(4-methyl-4H-1,2,4-triazol-3-ylthio)ethyl)-2,3-dihydro-1H-inden-4-yl)quinoline-2-carboxamide] | ≤ 10 | 3 to 10
18 | C[C@H](Sc1nncn1C)c1cccc(NC(=O)c2cc(C(=O)N3CCC[C@H]3C)ccn2)c1 [Compound 142, N-(3-((S)-1-((4-methyl-4H-1,2,4-triazol-3-yl)thio)ethyl)phenyl)-4-((R)-2-methylpyrrolidine-1-carbonyl)picolinamide] | ≤ 10 | > 10
19 | C[C@H](Sc1nncn1C)c1cccc(NC(=O)c2cc(C(=O)N3CCC(S(C)(=O)=O)C3)ccn2)c1 (some centres unmarked) [Compound 158, N-(3-((A)-1-((4-methyl-4H-1,2,4-triazol-3-yl)thio)ethyl)phenyl)-4-(3-(methylsulfonyl)pyrrolidine-1-carbonyl)picolinamide] | ≤ 10 | 3 to 10
20 | CC(Sc1nncn1C)c1cccc(N2Cc3ccc(C(C)(C)O)cc3C2=O)c1 (centres unmarked) [Compound 165, 6-(1-hydroxy-1-methyl-ethyl)-2-[3-[1-[(4-methyl-1,2,4-triazol-3-yl)sulfanyl]ethyl]phenyl]isoindolin-1-one] | ≤ 10 | 3 to 10
21 | CNC(=O)c1ccc2c(c1)C(=O)N(c1cc(C(C)Sc3nncn3C)ccn1)C2 (centres unmarked) [Compound 173, N-methyl-2-(4-[1-[(4-methyl-4H-1,2,4-triazol-3-yl)sulfanyl]ethyl]pyridin-2-yl)-3-oxo-2,3-dihydro-1H-isoindole-5-carboxamide] | ≤ 10 | 3 to 10
22 | CC(Sc1nncn1C)c1cc(NCCO)nc(N2Cc3c(cccc3C(F)(F)F)C2=O)c1 (centres unmarked) [Compound 174, 2-[6-(2-hydroxyethylamino)-4-[1-[(4-methyl-1,2,4-triazol-3-yl)sulfanyl]ethyl]-2-pyridyl]-4-(trifluoromethyl)isoindolin-1-one] | ≤ 10 | 1 to 3
23 | C[C@H](Cc1nncn1C)c1cccc(NC(=O)c2ccn(C)n2)c1 [Compound 197, (R)-1-methyl-N-(3-(1-(4-methyl-4H-1,2,4-triazol-3-yl)propan-2-yl)phenyl)-1H-pyrazole-3-carboxamide] | ≤ 10 | 1 to 3
24 | Cc1conc1C[C@H](C)c1cccc(NC(=O)c2ccnc(C(F)(F)F)n2)c1 [Compound 213b, (S)-N-(3-(1-(4-methylisoxazol-3-yl)propan-2-yl)phenyl)-2-(trifluoromethyl)pyrimidine-4-carboxamide] | ≤ 10 | 3 to 10
25 | Cc1ccn(CC(C)c2cccc(NC(=O)c3cccc(C(F)(F)F)n3)c2)n1 (centres unmarked) [Compound 216, N-(3-(1-(3-methyl-1H-pyrazol-1-yl)propan-2-yl)phenyl)-6-(trifluoromethyl)picolinamide] | ≤ 10 | 3 to 10
